Results: US7962204B2 (priority 2001, dated 2011)

Legend:
[1] = tested on: patients with alpha frequency deficits / theta excess; parameters: species or system human; details: in vivo
[2] = tested on: behaviorally-diagnosed psychiatric conditions (DSM categories); parameters: species or system human; details: in vivo;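 for use code of agent in 301.7 Antisocial Personality Disorder: N marks novel agent found effective in subject subgroups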;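 for use code of agent in 301.83 Borderline Personality Disorder: N marks novel agent found effective in subject subgroups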;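 for use in 307.50 Eating Disorder NOS: N marks novel agent found effective in subject subgroups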;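 for use in 307.51 Bulimia Nervosa: N marks novel agent found effective in subject subgroups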;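 for use in 313.81 Oppositional Defiant Disorder: N marks novel agent found effective in subject subgroups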

Structure (SMILES): O=C1Nc2ccc(Cl)cc2C(c2ccccc2Cl)=NC1O (stereo not shown) [lorazepam]
- response of chronic insomnia of patient 4 [1]: only slightly responsive

Structure (SMILES): N[C@@H]1C[C@H]1c1ccccc1 [PARNATE, reference compound]
- use code of agent in 301.20 Schizoid Personality Disorder [2]: N
- use code of agent in 301.4 Obsessive-Compulsive Personality Disorder [2]: N
- use code of agent in 301.50 Histrionic Personality Disorder [2]: N
- use code of agent in 301.6 Dependent Personality Disorder [2]: N
- use code of agent in 301.7 Antisocial Personality Disorder [2]: N
- use code of agent in 301.82 Avoidant Personality Disorder [2]: N
- use code of agent in 301.83 Borderline Personality Disorder [2]: N
- use code of agent in 302.71 Hypoactive Sexual Desire Disorder [2]: N
- use code of agent in 307.42 Primary Insomnia [2]: N
- use code of agent in 311 Depressive Disorder NOS [2]: N
- use code of agent in 316 Psychological Factors Affecting Medical Condition, Atypical Asthma [2]: N
- use code of agent in 316 Psychological Factors Affecting Medical Condition, Neurodermatitis [2]: N
- use code of agent in Bipolar I Disorder [2]: N
- use code of agent in Major Depressive Disorder, Recurrent [2]: N
- use code of agent in Major Depressive Disorder, Single Episode [2]: N
- use in 294.9 Cognitive Disorder NOS [2]: N
- use in 296.89 Bipolar II Disorder [2]: N
- use in 296.90 Mood Disorder NOS [2]: N
- use in 299.80 Pervasive Developmental Disorder NOS [2]: N
- use in 300.00 Anxiety Disorder NOS [2]: N
- use in 300.02 Generalized Anxiety Disorder [2]: N
- use in 300.22 Agoraphobia Without History of Panic Disorder [2]: N
- use in 300.23 Social Phobia [2]: N
- use in 300.29 Specific Phobia [2]: N
- use in 300.3 Obsessive-Compulsive Disorder [2]: N
- use in 300.4 Dysthymic Disorder [2]: N
- use in 301.13 Cyclothymic Disorder [2]: N
- use in 307.1 Anorexia Nervosa [2]: N
- use in 307.50 Eating Disorder NOS [2]: N
- use in 307.51 Bulimia Nervosa [2]: N
- use in 309.21 Separation Anxiety Disorder [2]: N
- use in 309.81 Posttraumatic Stress Disorder [2]: N
- use in 312.30 Impulse-Control Disorder NOS [2]: N
- use in 312.31 Pathological Gambling [2]: N
- use in 312.34 Intermittent Explosive Disorder [2]: N
- use in 312.39 Trichotillomania [2]: N
- use in 312.8 Conduct Disorder [2]: N
- use in 313.81 Oppositional Defiant Disorder [2]: N
- use in 315.9 Learning Disorder NOS [2]: N
- use in Attention-Deficit/Hyperactivity Disorder [2]: N
- use in Panic Disorder [2]: N
- use of the agent in the diagnostic category (C = common use; N = novel use from rEEG features) [2]: N

Structure (SMILES): CC(NC(C)(C)C)C(=O)c1cccc(Cl)c1 (stereo not shown) [BUPROPRION (LONG ACTING)]
- use code of agent in 301.20 Schizoid Personality Disorder [2]: N
- use code of agent in 301.22 Schizotypal Personality Disorder [2]: N
- use code of agent in 301.4 Obsessive-Compulsive Personality Disorder [2]: N
- use code of agent in 301.50 Histrionic Personality Disorder [2]: N
- use code of agent in 301.6 Dependent Personality Disorder [2]: N
- use code of agent in 301.7 Antisocial Personality Disorder [2]: N
- use code of agent in 301.82 Avoidant Personality Disorder [2]: N
- use code of agent in 301.83 Borderline Personality Disorder [2]: N
- use code of agent in 302.71 Hypoactive Sexual Desire Disorder [2]: N
- use code of agent in 307.42 Primary Insomnia [2]: N
- use code of agent in 311 Depressive Disorder NOS [2]: N
- use code of agent in 316 Psychological Factors Affecting Medical Condition, Atypical Asthma [2]: N
- use code of agent in 316 Psychological Factors Affecting Medical Condition, Neurodermatitis [2]: N
- use code of agent in Bipolar I Disorder [2]: N
- use in 294.8 Amnestic Disorder [2]: N
- use in 294.9 Cognitive Disorder NOS [2]: N
- use in 296.89 Bipolar II Disorder [2]: N
- use in 299.80 Pervasive Developmental Disorder NOS [2]: N
- use in 300.00 Anxiety Disorder NOS [2]: N
- use in 300.02 Generalized Anxiety Disorder [2]: N
- use in 300.22 Agoraphobia Without History of Panic Disorder [2]: N
- use in 300.23 Social Phobia [2]: N
- use in 300.29 Specific Phobia [2]: N
- use in 300.3 Obsessive-Compulsive Disorder [2]: N
- use in 301.13 Cyclothymic Disorder [2]: N
- use in 307.1 Anorexia Nervosa [2]: N
- use in 307.50 Eating Disorder NOS [2]: N
- use in 307.51 Bulimia Nervosa [2]: N
- use in 307.9 Communication Disorder NOS [2]: N
- use in 309.21 Separation Anxiety Disorder [2]: N
- use in 309.81 Posttraumatic Stress Disorder [2]: N
- use in 312.30 Impulse-Control Disorder NOS [2]: N
- use in 312.31 Pathological Gambling [2]: N
- use in 312.34 Intermittent Explosive Disorder [2]: N
- use in 312.39 Trichotillomania [2]: N
- use in 312.8 Conduct Disorder [2]: N
- use in 313.81 Oppositional Defiant Disorder [2]: N
- use in 315.9 Learning Disorder NOS [2]: N
- use in Attention-Deficit/Hyperactivity Disorder [2]: N
- use in Panic Disorder [2]: N
- use of the agent in the diagnostic category (C = common use; N = novel use from rEEG features) [2]: N

Structure (SMILES): N[C@@H](Cc1ccc(O)cc1)C(=O)O [TYROSINE]
- use in Dementia of the Alzheimer's Type [2]: N

Structure (SMILES): N[C@@H](Cc1ccc(O)cc1)C(=O)O [L-tyrosine]
- clinical response of granddaughter [1]: successfully treated

Structure (SMILES): NC(=O)N1c2ccccc2C=Cc2ccccc21 [carbamazepine]
- clinical response of patients 1-4 [1]: responded positively

Structure (SMILES): CC(NC(C)(C)C)C(=O)c1cccc(Cl)c1 (stereo not shown) [Bupropion]
- clinical response of patients 1-4 [1]: responded positively
